According to patent US9932350B2, “Inhibitors of IRAK4 activity” (MERCK SHARP & DOHME CORP., priority 2014, dated 2018):

target: GST tagged IRAK4 (Homo sapiens (Human), UniProt Q9NWZ3); assay: IRAK4 Kinase Assay (IMAP fluorescence polarization); assay type: biochemical; conditions: 0.5 nM GST tagged IRAK4, 100 μM ATP, 30 minutes at 25° C.
Description: The kinase activity of IRAK4 is determined by its ability to catalyze the phosphorylation of a fluorescent polypeptide substrate. The extent of phosphorylation is measured using the IMAP technology (Molecular Devices) where the phosphorylated fluorescent substrate binds to the large M(III)-based nanoparticles which reduces the rotational speed of the substrate and thus increases its fluorescent polarization (FP).
20 μL reaction mixture contains 10 mM TriHCl, pH 7.2, 0.5 nM GST tagged IRAK4 (SignalChem), 100 nM fluorescent peptide substrate (RP7030, Molecular Devices), 100 μM ATP, 1 mM DDT, 1 mM MgCl2, and 0.01% Tween 20. The reaction is initiated by the addition of ATP. After incubation for 30 minutes at 25° C., 60 μL of Progressive IMAP Reagent (Molecular Devices) is added to stop the reaction. Change in RP7030's FP is determined by a FP reader (Analyst HT, LJL BioSystems).

GST tagged IRAK4, sequence (Q9NWZ3 whole entry): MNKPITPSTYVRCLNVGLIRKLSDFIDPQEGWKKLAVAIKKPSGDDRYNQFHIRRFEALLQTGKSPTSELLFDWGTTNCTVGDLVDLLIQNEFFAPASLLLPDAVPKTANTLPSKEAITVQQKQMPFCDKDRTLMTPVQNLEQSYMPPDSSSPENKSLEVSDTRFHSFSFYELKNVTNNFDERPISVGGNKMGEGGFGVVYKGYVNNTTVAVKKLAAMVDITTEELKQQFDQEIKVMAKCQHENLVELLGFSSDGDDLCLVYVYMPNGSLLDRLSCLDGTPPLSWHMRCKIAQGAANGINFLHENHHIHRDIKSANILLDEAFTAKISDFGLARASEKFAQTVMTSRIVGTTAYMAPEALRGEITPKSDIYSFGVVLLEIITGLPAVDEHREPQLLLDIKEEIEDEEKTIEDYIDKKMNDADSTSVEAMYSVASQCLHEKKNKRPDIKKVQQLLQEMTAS

| Compound | IC50 |
| --- | --- |
| N#Cc1ccc2ncnc(N[C@H]3CC[C@H](N4CCC5OCCC54)CC3)c2c1 (stereo partly drawn) [Example 3-39, 4-{[trans-4-(hexahydro-4H-furo[3,2-b]pyrrol-4-yl)cyclohexyl]amino} quinazoline-6-carbonitrile] | 174 nM |
| CO[C@@H]1CCN([C@H]2CC[C@H](Nc3ncnc4ccc(C#N)cc34)CC2)C1 [Example 3-40, 4-({trans-4-[(3R)-3-methoxypyrrolidin-1-yl]cyclohexyl}amino) quinazoline-6-carbonitrile] | 51 nM |
| N#Cc1ccc2ncnc(N[C@H]3CC[C@H](N4CCC(CN5CCOCC5)CC4)CC3)c2c1 [Example 3-43, 4-({trans-4-[4-(mopholin-4-ylmethyl)piperidin-1-yl]cyclohexyl}amino) quinazoline-6-carbonitrile] | 9 nM |
| N#Cc1ccc2ncnc(N[C@H]3CC[C@H](N4CCCC4)CC3)c2c1 [Example 3-44, 4-{[trans-4-(pyrrolidin-1-yl)cyclohexyl]amino} quinazoline-6-carbonitrile] | 15 nM |
| CC(C)(C)OC(=O)N1CCN([C@H]2CC[C@H](Nc3ncnc4ccc(C#N)cc34)CC2)CC1 [Example 3-45, tert-butyl 4-{trans-4-[(6-cyanoquinazolin-4-yl)amino]cyclohexyl} piperazine-1-carboxylate] | 6 nM |
| N#Cc1ccc2ncnc(N[C@H]3CC[C@H](N4CCCC(CN5CCOCC5)C4)CC3)c2c1 (stereo partly drawn) [Example 3-46, 4-({trans-4-[3-(morpholin-4-ylmethyl)piperidin-1-yl]cyclohexyl}amino) quinazoline-6-carbonitrile] | 7 nM |
| N#Cc1ccc2ncnc(N[C@H]3CC[C@H](N4C5CCC4COC5)CC3)c2c1 [Example 3-47, 4-{[trans-4-(3-oxa-8-azabicyclo[3.2.1]oct-8-yl)cyclohexyl]amino} quinazoline-6-carbonitrile] | 872 nM |
| N#Cc1ccc2ncnc(N[C@H]3CC[C@H](N4C[C@H]5CC[C@@H](C4)O5)CC3)c2c1 [Example 3-50, 4-({trans-4-[(1R,5S)-8-oxa-3-azabicylco[3.2.1]oct-3-yl]cyclohexyl}amino) quinazoline-6-carbonitrile] | 579 nM |
| CC1(C)CN([C@H]2CC[C@H](Nc3ncnc4ccc(C#N)cc34)CC2)CCO1 [Example 3-51, 4-{[trans-4-(2,2-dimethylmorpholin-4-yl)cyclohexyl]amino} quinazoline-6-carbonitrile] | 89 nM |
| CC(C)[C@@H]1COCCN1[C@H]1CC[C@H](Nc2ncnc3ccc(C#N)cc23)CC1 [Example 3-52, 4-({trans-4-[(3R)-3-(propan-2-yl)morpholin-4-yl]cyclohexyl}amino) quinazoline-6-carbonitrile] | 26 nM |
| N#Cc1ccc2ncnc(N[C@H]3CC[C@H](N4CCCC(F)(F)CC4)CC3)c2c1 [Example 3-53, 4-{[trans-4-(4,4-difluoroazepan-1-yl)cyclohexyl]amino} quinazoline-6-carbonitrile] | 12 nM |
| N#Cc1ccc2ncnc(N[C@H]3CC[C@H](N4CCC(F)(F)CC4)CC3)c2c1 [Example 3-54, 4-{[trans-4-(4,4-difluoropiperidin-1-yl)cyclohexyl]amino} quinazoline-6-carbonitrile] | 3 nM |
| N#Cc1ccc2ncnc(N[C@H]3CC[C@H](N4CCC(O)C4)CC3)c2c1 (stereo partly drawn) [Example 3-55, 4-{[trans-4-(3-hydroxypyrrolidin-1-yl)cyclohexyl]amino} quinazoline-6-carbonitrile] | 15 nM |
| CN(C)[C@H]1CC[C@H](Nc2ncnc3ccc(OCCCC(N)=O)cc23)CC1 [Example 4-1, 4-[(4-{[Trans-4-(dimethylamino)cyclohexyl]amino}quinazolin-6-yl)oxy]butanamide] | 525 nM |
| N#Cc1cc2c(N[C@H]3CC[C@H](N4CCOCC4)CC3)ncnc2cc1F [Example 5-1, 7-Fluoro-4-{[trans-4-(morpholin-4-yl)cyclohexyl]amino}quinazoline-6-carbonitrile] | 27 nM |
| Cc1c(C#N)ccc2ncnc(N[C@H]3CC[C@H](N4CCOCC4)CC3)c12 [Example 5-2, 5-methyl-4-{[trans-4-(morpholin-4-yl)cyclohexyl]amino} quinazoline-6-carbonitrile] | 52 nM |
| N#Cc1ccc2ncnc(N[C@H]3CC[C@H](N4CCN(C(=O)C5CC5)CC4)CC3)c2c1 [Example 6-1, 4-({Trans-4-[4-(cyclopropylcarbonyl)piperazin-1-yl]cyclohexyl}amino)quinazoline-6-carbonitrile] | 3 nM |
| CC(=O)N1CCN([C@H]2CC[C@H](Nc3ncnc4ccc(C#N)cc34)CC2)CC1 [Example 6-2, 4-{[trans-4-(4-acetylpiperazin-1-yl)cyclohexyl]amino} quinazoline-6-carbonitrile] | 11 nM |

| Compound | IC50 |
| --- | --- |
| CC(C)(C)C(=O)N1CCN([C@H]2CC[C@H](Nc3ncnc4ccc(C#N)cc34)CC2)CC1 [Example 6-3, 4-({trans-4-[4-(2,2-dimethylpropanoyl)piperazin-1-yl]cyclohexyl}amino) quinazoline-6-carbonitrile] | 8 nM |
| CC(C)(CF)C(=O)N1CCN([C@H]2CC[C@H](Nc3ncnc4ccc(C#N)cc34)CC2)CC1 [Example 6-4, 4-({trans-4-[4-(3-fluoro-2,2-dimethylpropanoyl)piperazin-1-yl]cyclohexyl}amino) quinazoline-6-carbonitrile] | 9 nM |
| CC(C)(F)C(=O)N1CCN([C@H]2CC[C@H](Nc3ncnc4ccc(C#N)cc34)CC2)CC1 [Example 6-5, 4-({trans-4-[4-(2-fluoro-2-methylpropanoyl)piperazin-1-yl]cyclohexyl}amino) quinazoline-6-carbonitrile] | 12 nM |
| CC(F)(F)C(=O)N1CCN([C@H]2CC[C@H](Nc3ncnc4ccc(C#N)cc34)CC2)CC1 [Example 6-6, 4-({trans-4-[4-(2,2-difluoropropanoyl)piperazin-1-yl]cyclohexyl}amino) quinazoline-6-carbonitrile] | 16 nM |
| CC(F)C(=O)N1CCN([C@H]2CC[C@H](Nc3ncnc4ccc(C#N)cc34)CC2)CC1 (stereo partly drawn) [Example 6-7, 4-({trans-4-[4-(2-fluoropropanoyl)piperazin-1-yl]cyclohexyl}amino) quinazoline-6-carbonitrile] | 14 nM |
| CC1(C(=O)N2CCN([C@H]3CC[C@H](Nc4ncnc5ccc(C#N)cc45)CC3)CC2)CC1 [Example 6-8, 4-[(trans-4-{4-[(1-methylcyclopropyl)carbonyl]piperazin-1-yl}cyclohexyl)amino] quinazoline-6-carbonitrile] | 15 nM |
| CC1(C(=O)N2CCN([C@H]3CC[C@H](Nc4ncnc5ccc(C#N)cc45)CC3)CC2)COC1 [Example 6-9, 4-[(trans-4-{4-[(3-methyloxetan-3-yl)carbonyl]piperazin-1-yl}cyclohexyl)amino] quinazoline-6-carbonitrile] | 14 nM |
| COCC(=O)N1CCN([C@H]2CC[C@H](Nc3ncnc4ccc(C#N)cc34)CC2)CC1 [Example 6-10, 4-({trans-4-[4-(methoxyacetyl)piperazin-1-yl]cyclohexyl}amino) quinazoline-6-carbonitrile] | 16 nM |
| N#Cc1ccc2ncnc(N[C@H]3CC[C@H](N4CCN(C(=O)[C@@H]5CCCO5)CC4)CC3)c2c1 [Example 6-11, 4-[(trans-4-{4-[(2S)-tetrahydrofuran-2-ylcarbonyl]piperazin-1-yl}cyclohexyl)amino] quinazoline-6-carbonitrile] | 11 nM |
| N#Cc1ccc2ncnc(N[C@H]3CC[C@H](N4CCN(C(=O)C(F)F)CC4)CC3)c2c1 [Example 6-12, 4-({trans-4-[4-(difluoroacetyl)piperazin-1-yl]cyclohexyl}amino) quinazoline-6-carbonitrile] | 27 nM |
| N#Cc1ccc2ncnc(N[C@H]3CC[C@H](N4CCN(C(=O)C5CC(F)C5)CC4)CC3)c2c1 (stereo partly drawn) [Example 6-13, 4-[(trans-4-{4-[(3-fluorocyclobutyl)carbonyl]piperazin-1-yl}cyclohexyl)amino] quinazoline-6-carbonitrile] | 10 nM |
| N#Cc1ccc2ncnc(N[C@H]3CC[C@H](N4CCN(C(=O)C5CC5(F)F)CC4)CC3)c2c1 (stereo partly drawn) [Example 6-14, 4-[(trans-4-{4-[(2,2-difluorocyclopropyl)carbonyl]piperazin-1-yl}cyclohexyl)amino] quinazoline-6-carbonitrile] | 13 nM |
| N#Cc1ccc2ncnc(N[C@H]3CC[C@H](N4CCN(C(=O)C5CCC5)CC4)CC3)c2c1 [Example 6-15, 4-({trans-4-[4-(cyclobutylcarbonyl)piperazin-1-yl]cyclohexyl}amino) quinazoline-6-carbonitrile] | 10 nM |
| N#Cc1ccc2ncnc(N[C@H]3CC[C@H](N4CCN(C(=O)C5CCCC5)CC4)CC3)c2c1 [Example 6-16, 4-({trans-4-[4-(cyclopentylcarbonyl)piperazin-1-yl]cyclohexyl}amino) quinazoline-6-carbonitrile] | 10 nM |
| N#Cc1ccc2ncnc(N[C@H]3CC[C@H](N4CCN(C(=O)CC5CC5)CC4)CC3)c2c1 [Example 6-17, 4-({trans-4-[4-(cyclopropylacetyl)piperazin-1-yl]cyclohexyl}amino) quinazoline-6-carbonitrile] | 9 nM |
| N#Cc1ccc2ncnc(N[C@H]3CC[C@H](N4CCN(C(=O)CC5COC5)CC4)CC3)c2c1 [Example 6-18, 4-({trans-4-[4-(oxetan-3-ylacetyl)piperazin-1-yl]cyclohexyl}amino) quinazoline-6-carbonitrile] | 10 nM |
| N#Cc1ccc2ncnc(N[C@H]3CC[C@H](N4CCN(C(=O)CF)CC4)CC3)c2c1 [Example 6-19, 4-({trans-4-[4-(fluoroacetyl)piperazin-1-yl]cyclohexyl}amino) quinazoline-6-carbonitrile] | 23 nM |
